Results from patent US7541398B2, “Method for transformation of conventional and commercially important polymers into durable and rechargeable antimicrobial polymeric materials” (priority 2005, dated 2009).

Test: Durability of SHC powders: active chlorine content titrated after storage under ambient conditions
Assay type: physicochemical
Settings: for active chlorine content: as synthesized, before storage; for Active chlorine content, 2 month / Active chlorine content, 4 month / Active chlorine content, 6 month: storage at about 25° C.±3, humidity about 60±10%
Description: Durability and Rechargeability of the SHCs. Durability: After storage under ambient conditions (e.g., temperature about 25° C.±3, humidity about 60±10%) for a certain period of time, the active chlorine contents in the SHC samples were titrated and the results were listed in Table 3.

Molecule | active chlorine content | Active chlorine content, 2 month | Active chlorine content, 4 month | Active chlorine content, 6 month
CC1(C)CC(OC(=O)CCCCCCCCC(=O)OC2CC(C)(C)N(Cl)C(C)(C)C2)CC(C)(C)N1Cl [SHC-1, Bis(N-chloro-2,2,6,6-tetramethyl-4-piperidyl)sebacate] | 12.5% | 12.6 wt. % | 12.8 wt. % | 12.4 wt. %
N-chloro-[(2,2,6,6-tetramethyl-4-piperidyl) alkyl formate] [SHC-3] | about 7.86% | 8.10 wt. % | 7.70 wt. % | 7.30 wt. %
